Measured values as given in patent publication US12539294B2, “Combination of an azetidine LPA1 receptor antagonist with pirfenidone and/or nintedanib for use in the treatment of fibrotic diseases” (Idorsia Pharmaceuticals Ltd, priority 2020, dated 2026).
Values belong to the compound of their own block, whether it stands above or below them.

How the values were obtained:
[1] = system: NHLF; assay: TGFβ-induced αSMA expression in human fibroblasts, combination with nintedanib; type: cell-based; details: 1 μM nintedanib, TGFβ 5 ng/ml, 48 h
Description: Combination Efficacy Experiment: TGFβ-Induced αSMA Expression in Human Fibroblasts:
NHLF were obtained from Lonza. 10'000 cells were seeded in 24-well plates in 300 μl FGM™ and incubated for 20 hours at 37° C., 5% CO2. The medium was changed for 300 μl FBM™ supplemented with 0.1% fatty acid free BSA (Sigma) and the plate incubated for 20 hours at 37° C., 5% CO2. 100 μl of the respective COMPOUND, nintedanib or their combination (solution in FBM™/0.1% fatty acid free BSA) were added per well and incubated for 30 minutes, followed by addition of 100 μl of TGFβ (5 ng/ml final) (solution in FBM™/0.1% fatty acid free BSA) and incubation for 48 h at 37° C., 5% CO2. […] Samples were resolved by SDS-PAGE on 4-12% Novex Bis-Tris precast gels (Thermo Fischer Scientific) and analyzed by western blot using αSMA (Sigma) and HRP-coupled secondary antibodies.
Membranes were treated with Western Lighting Enhanced Chemiluminescence Substrate (Perkin Elmer) and the chemiluminescence signal was recorded by the reader Fusion FX6 (Viber Lourmat). Signals were quantified using densitometric analysis in Fusion software. % of inhibition of TGFβ-induced αSMA expression was calculated for each COMPOUND, nintedanib and their combination. Additive effect was calculated by adding the values of % of inhibition by COMPOUND alone and nintedanib alone and expressed as “expected combo inhibition”. […]

[2] = cited from earlier work
[3] = system: primary human lung (myo)fibroblasts; details: cited from earlier work; for fibroblast to myofibroblast differentiation and/or pro-fibrotic activity of (myo)fibroblasts: primary human lung (myo)fibroblasts, various conditions
[4] = target: T1, human LPA1 receptor (Homo sapiens, UniProt Q92633); assay: Beta-arrestin recruitment assay (Tango EDG2-bla U2OS cells) to determine IC50 values for human LPAR1; type: cell-based; details: antagonist mode, LPA 18:1 500 nM final; geomean where multiple values
T1 construct: TEV protease site; Gal4-VP16 transcription factor; host or cells: Tango EDG2-bla U2OS cells
T1 sequence (Q92633 whole entry, the tested form may be a part): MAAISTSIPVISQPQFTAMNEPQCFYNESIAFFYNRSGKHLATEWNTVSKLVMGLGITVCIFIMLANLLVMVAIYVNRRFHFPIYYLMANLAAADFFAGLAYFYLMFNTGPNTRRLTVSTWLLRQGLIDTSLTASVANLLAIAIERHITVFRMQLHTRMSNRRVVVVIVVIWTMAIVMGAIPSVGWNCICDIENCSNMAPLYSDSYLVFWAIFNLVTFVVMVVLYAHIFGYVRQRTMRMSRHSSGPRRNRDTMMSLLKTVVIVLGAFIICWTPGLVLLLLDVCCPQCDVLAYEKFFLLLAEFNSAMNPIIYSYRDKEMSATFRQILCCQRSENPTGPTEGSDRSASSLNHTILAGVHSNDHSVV
Excerpt: Biological Assays Beta-Arrestin Recruitment Assay to Determine IC50 values for human LPAR1
The Tango™ EDG2-bla U2OS cells are obtained from Invitrogen. These cells contain the human LPA1 receptor cDNA linked to a TEV protease site and a Gal4-VP16 transcription factor integrated into the Tango™ GPCR-bla U2OS parental cell line. This parental cell line stably expresses a beta-arrestin/TEV protease fusion protein and the beta-lactamase (bla) reporter gene under the control of a UAS response element. Upon LPA (agonist) binding, LPA1 receptor gets activated, leading to arrestin-protease recruitment and proteolytic release of the transcription factor: The transcription factor then regulates transcription of a beta-lactamase reporter construct, which is measured upon addition of the live-cell substrate.
10'000 Tango™ EDG2-bla U2OS cells are seeded in a 384-well black with clear bottom plate in 30 μl Freestyle 293 Expression Medium (Invitrogen) and incubated for 20 h at 37° C., 5% CO2. For antagonist assays, 5 μl of test compound (dilution series in DMSO/Freestyle 293 Expression medium/0.1% fatty acid free BSA (Sigma)) or buffer control are added per well and incubated for 30 min at 37° C., 5% CO2. 5 μl of LPA 18:1 (500 nM final) (solution in Freestyle 293 Expression medium/0.1% fatty acid free BSA (Sigma)) are added per well and the plate incubated for 16 h at 37° C., 5% CO2. Cells are then loaded with LiveBLAzer-FRET™ B/G Substrate (Invitrogen) for 2 h in the dark and the fluorescence emission at 460 nm and 530 nm is measured using the SynergyMx reader (BioTek). Following the background subtraction from both channels, the 460/530 nm emission ratio for each well is calculated, then plotted and fitted to a 4-parameter logistic function to obtain IC50 values. IC50 is the concentration of antagonist inhibiting 50% of the maximal response.
Where multiple values were measured, geomean values are given.

[5] = cited from earlier work; remark: listed apart in the source
[6] = system: LPA-induced vascular leakage; assay: mouse LPA-induced skin vascular leakage model; type: in vivo; details: oral administration of 30 mg/kg to mice
Description: The in vivo potency of the compounds of Formula (I) can be determined using a mouse LPA-induced skin vascular leakage model. Female Balb/c mice are treated with either vehicle or test compound (p.o.) for at least 1 h prior to administration of the albumin marker Evans blue (50 mg/kg, i.v., 0.9% NaCl) and subsequent challenge with LPA (5 μg, i.d.). After 30 minutes, mice are sacrificed by CO2 inhalation. Discs of skin from the injection sites are removed, digested in formamide (500 μl, 37° C., 24 hrs) and the content of Evans blue quantified by colorimetric assay. Results are expressed as extravasated Evans blue per skin disc (μg/disc).
As an example, selected compound of the present invention, Ex 5-2, is able to effectively reduce LPA-induced vascular leakage after oral administration of 30 mg/kg to mice as compared to a group of animals treated with vehicle only. Reduction of vascular leakage compared to vehicle group was ≥60%.

[7] = system: Normal Human Lung Fibroblasts (NHLF); assay: TGFβ-induced αSMA expression in human fibroblasts, combination with pirfenidone; type: cell-based
Description: The anti-fibrotic effect of the respective Example COMPOUND A-C or Reference COMPOUND D (BMS-986020) and pirfenidone alone or in combination can be determined in vitro in the assay of TGFβ-induced myofibroblast differentiation.
Combination Efficacy Experiment: Transforming Growth Factor Beta (TGFβ)-Induced α-Smooth Muscle Actin (αSMA) Expression in Human Fibroblasts:
Normal Human Lung Fibroblasts (NHLF) were obtained from Lonza. 10'000 cells were seeded in 24-well plates in 300 μl Fibroblast Growth Medium-2 (FGM™-2, Lonza) and incubated for 20 hours at 37° C., 5% CO2. […] Samples were resolved by SDS-PAGE on 4-12% Novex Bis-Tris precast gels (Thermo Fischer Scientific) and analyzed by western blot using αSMA (Sigma) and HRP-coupled secondary antibodies. Membranes were treated with Western Lighting Enhanced Chemiluminescence Substrate (Perkin Elmer) and the chemiluminescence signal was recorded by the reader Fusion FX6 (Viber Lourmat). Signals were quantified using densitometric analysis in Fusion software. % of inhibition of TGFβ-induced αSMA expression was calculated for each COMPOUND, pirfenidone and their combination. Additive effect was calculated by adding the values of % of inhibition by COMPOUND alone and pirfenidone alone and expressed as “expected combo inhibition”. Measured % of inhibition by COMPOUND and pirfenidone combination was expressed as “measured combo inhibition”. […]

[8] = cited from earlier work; remark: listed apart in the source

Compound: CCS(=O)(=O)O.COC(=O)c1ccc2c(c1)NC(=O)/C2=C(\Nc1ccc(N(C)C(=O)CN2CCN(C)CC2)cc1)c1ccccc1 [nintedanib, (3Z)-2,3-dihydro-3-[[[4-[methyl-[(4-methyl-1-piperazinyl)-acetyl]-amino]-phenyl]-amino]-phenylmethylene]-2-oxo-1H-indole-6-carboxylic acid methyl ester ethanesulfonate]
inhibition of TGFβ-induced αSMA expression, nintedanib alone [1]: minimally inhibited
elevated liver enzymes and drug-induced liver injury ([2]; clinical and postmarketing): ALT, AST, and bilirubin elevations have occurred
reduction of the decline in lung function ([2]; two phase III trials, over one year): approximately 50%
fibroblast to myofibroblast differentiation and/or pro-fibrotic activity of (myo)fibroblasts [3]: attenuated, but usually did not fully inhibit

IC50 [4]: 14 nM
Compound: Cc1ccc(NC(=O)C2(c3ccccc3C(C)C)CN(S(N)(=O)=O)C2)c(OC(C)C)n1 [Example 5-10, N-(2-isopropoxy-6-methylpyridin-3-yl)-3-(2-isopropylphenyl)-1-sulfamoylazetidine-3-carboxamide]

IC50 [4]: 79 nM
Compound: COc1cc(Cl)ncc1NC(=O)C1(c2ccccc2C(C)C)CN(C(=O)CC(C)(C)C(=O)O)C1 [Example 4-2, 4-(3-((6-chloro-4-methoxypyridin-3-yl)carbamoyl)-3-(2-isopropylphenyl)azetidin-1-yl)-2,2-dimethyl-4-oxobutanoic acid]

IC50 [4]: 19 nM
Compound: COc1cc(F)ncc1NC(=O)C1(c2ccccc2C(C)C)CN(S(N)(=O)=O)C1 [Example 5-1, N-(6-fluoro-4-methoxypyridin-3-yl)-3-(2-isopropylphenyl)-1-sulfamoylazetidine-3-carboxamide]

IC50 [4]: 3 nM
Compound: CCOc1cc(Cl)ncc1NC(=O)C1(c2ccccc2C(C)C)CN(S(N)(=O)=O)C1 [Example 5-3, N-(6-chloro-4-ethoxypyridin-3-yl)-3-(2-isopropylphenyl)-1-sulfamoylazetidine-3-carboxamide]

IC50 [4]: 20 nM
Compound: CCOc1cc(Cl)ncc1NC(=O)C1(c2ccccc2C(C)C)CN(CCC(C)(C)C(=O)O)C1 [Example 2-4, 4-(3-((6-chloro-4-ethoxypyridin-3-yl)carbamoyl)-3-(2-isopropylphenyl)azetidin-1-yl)-2,2-dimethylbutanoic acid]

Compound: Cc1noc(-c2ccc(-c3ccc(C4(C(=O)O)CC4)cc3)cc2)c1NC(=O)O[C@H](C)c1ccccc1 [BMS-986020]
rate of decline in forced vital capacity (FVC) versus placebo ([5]; IPF patients, b.i.d.): significantly slower rate of decline
hepatic enzymes ([5]; both BMS-986020 treatment groups): Dose-related elevations
cases of cholecystitis determined to be related to treatment ([5]; study terminated early): three cases of cholecystitis

Compound: COc1cc(Cl)ncc1NC(=O)C1(c2ccccc2C(C)C)CN(S(N)(=O)=O)C1 [Example 5-2, N-(6-chloro-4-methoxypyridin-3-yl)-3-(2-isopropylphenyl)-1-sulfamoylazetidine-3-carboxamide]
Reduction of vascular leakage compared to vehicle group [6]: ≥ 60%

IC50 [4]: 12 nM
Compound: 4-(3-((6-chloro-4-ethoxypyridin-3-yl)carbamoyl)-3-(2-isopropylphenyl)azetidin-1-yl)-2,2-dimethyl-4-oxobutanoic acid [Example 4-5]

IC50 [4]: 2 nM
Compound: Cc1ccc(NC(=O)C2(c3ccccc3C(C)C)CN(S(N)(=O)=O)C2)c(OC(F)F)n1 [Example 5-7, N-(2-(difluoromethoxy)-6-methylpyridin-3-yl)-3-(2-isopropylphenyl)-1-sulfamoylazetidine-3-carboxamide]

IC50 [4]: 13 nM
Compound: Cc1ccc(NC(=O)C2(c3ccccc3C(C)C)CN(CCCC(C)(C)C(=O)O)C2)c(OC(F)F)n1 [Example 3-1, 5-(3-((2-(difluoromethoxy)-6-methylpyridin-3-yl)carbamoyl)-3-(2-isopropylphenyl)azetidin-1-yl)-2,2-dimethylpentanoic acid]

Compound: Cc1ccc(=O)n(-c2ccccc2)c1 [pirfenidone, 5-methyl-1-phenyl-2-(1H)-pyridone]
inhibition of TGFβ-induced αSMA expression, pirfenidone alone ([7]; 2 mM pirfenidone, TGFβ 5 ng/ml, 48 h): minimally inhibited
pirfenidone potency (IC50) on TGFβ-induced αSMA expression when combined with COMPOUND A ([7]; presence of 10 nM, 100 nM and 1000 nM COMPOUND A versus absence (FIG. 5)): gains in potency
patients requiring dosage reduction or interruption for gastrointestinal events ([8]; 2403 mg/day group): 18.5%
patients who discontinued treatment due to a gastrointestinal event ([8]; 2403 mg/day group): 2.2%
patients with elevations ≥10×ULN in ALT or AST ([8]; 2403 mg/day group): 0.3%
incidence of elevations in ALT or AST ≥3× upper limit of normal (ULN) ([8]; 2403 mg/day, three Phase 3 trials): 3.7%
drug-induced liver injury (DILI) ([8]; clinical and postmarketing): Cases of drug-induced liver injury (DILI) have been observed
concentrations used to observe significant effects in vitro ([3]; in vitro): > 0.5 mM
fibroblast to myofibroblast differentiation and/or pro-fibrotic activity of (myo)fibroblasts [3]: attenuated, but usually did not fully inhibit

IC50 [4]: 51 nM
Compound: COc1nc(C)ccc1NC(=O)C1(c2ccccc2C(C)C)CN(S(N)(=O)=O)C1 [Example 5-8, 3-(2-isopropylphenyl)-N-(2-methoxy-6-methylpyridin-3-yl)-1-sulfamoylazetidine-3-carboxamide]
